Data published in patent US20100323990A1, “SHIP 1 MODULATOR PRODRUGS” (THE UNIVERSITY OF BRITISH COLUMBIA, priority 2006, published 2010).

What was measured:
J774.1a macrophage cells [1] = assay: Macrophage TNF-α NO assay (Assay 3), Griess reagent; format: cell-based; conditions: 10 μg/ml test compound, LPS, supernatants after 24 hr; further: key: a ‘+’ indicates a positive result for desired activity; a ‘−’ indicates a negative result for desired activity
Method: (§1) Assay 1) In vitro testing in a SHIP enzyme assay. Test compounds were dissolved in a suitable solvent (e.g. EtOH, DMSO and others) and diluted into aqueous buffer (20 mM Tris HCl, pH 7.5 and 10 mM MgCl2). SHIP enzyme assays were performed in 96-well microtitre plates with 10 ng of enzyme/well in a total volume of 25 μL of 20 mM Tris HCl, pH 7.5 and 10 mM MgCl2. SHIP enzyme was incubated with test extracts (provided in solvent) or vehicle for 15 min at 23° C. before the addition of 100 μM inositol-1,3,4,5-tetrakisphosphate (Echelon Biosciences Inc, Salt Lake City, Utah). After 20 min at 37° C. and the amount of inorganic phosphate released assessed by the addition of Malachite Green reagent and absorbance measurement at 650 nm. Assay 2) Macrophage TNF-α production. J774.1a macrophage cells were treated with 10 μg/mL of test compound dissolved in solvent (e.g. cyclodextran) for 40 minutes prior to the addition of 100 ng/mL LPS. Culture supernatants were collected after 2 hr and 5 hr for TNF-α determination by ELISA. Assay 3) Macrophage TNF-α NO assay. J774.1a macrophage cells were treated with 10 μg/ml of test compound dissolved in solvent for 40 minutes prior to the addition of LPS. Culture supernatants were collected after 24 hr. for determination of NO concentration using the Griess reagent. Assay 4) Stimulation of mast cells by FcεRI crosslinking. Mast cells were pre-loaded overnight in BMMC medium lacking IL-3 with 0.1 μg/ml anti-DNP IgE (SPE-7, Sigma, Oakville, Ont). For calcium flux measurements, cells were incubated with 2 μM fura 2-acetoxymethyl ester (Molecular Probes, Eugene, Oreg.) in Tyrode's buffer at 23° C. for 45 min. Cells were then washed and incubated in the presence of the test compound 30 min prior to stimulation with the indicated concentration of DNP-human serum albumin (DNP-HSA). Calcium influx was monitored by spectrofluorometry as described previously. For analysis of intracellular signaling, cells were pre-loaded with anti-DNP IgE as above, pre-treated with the test compound for 30 min at 37° C. and stimulated with 20 ng/ml DNP-HSA for 5 min. Total cell lysates were then prepared and analyzed for phospho-PKB, phospho-p38^MAPK, phospho-MAPK, Grb-2 (Cell Signalling, Mississauga, Ont) and SHIP^6 by immunoblot analysis. Assay 5) Mouse acute cutaneous anaphylaxis model. 6-8 week old CD1 mice (University of British Columbia Animal Facility, Vancouver, BC) were sensitized to the hapten DNP by cutaneous application of 25 μL of 0.5% dinitrofluorobenzene (DNFB) (Sigma, Oakville, Ont) in acetone to the shaved abdomen of mice for two consecutive days. 24 hrs later, test substances (dissolved in 10 μL of 1:2 DMSO:MeOH) were painted on the right ear while the left ear received vehicle control. 30 min after drug application, DNFB was applied to both ears to induce mast cell degranulation. A 6 mm punch was taken from the ear and immediately frozen on dry ice for subsequent determination of neutrophil myeloperoxidase (MPO) activity. Assay 6) Mouse endotoxemia model. 6-8 week old C57B16 mice (VCHRI Mammalian Model of Human Disease Core Facility, Vancouver, BC) were orally administered the test compound 30 min prior to an IP injection of 2 mg/kg of LPS (E. Coli serotype 0111:B4, Sigma, Oakville, Ont). Blood was drawn 2 hrs later for determination of plasma TNFα by ELISA. Assay 7) In vitro Mulitple Myeloma (MM) assay. The ability of SHIP activators to reduce tumor cell survival was assessed in MM cell lines treated with the test compound. The lines OPM1, OPM2, MM.1S and RPMI 8226 were plated at a density of 1×10^5 cells/mL in 200 μL of medium with various concentrations of the test compound, and viable cell numbers were determined on day 3 and day 5 by trypan blue exclusion. The lines RPMI 8226 and U266 were plated at a density of 1×10^6 cells/mL in 250 μL of medium with various concentrations of the test compound. At day 4, the medium of each culture was replaced by fresh medium containing the same concentration of test compound. […]

SHIP enzyme = assay: In vitro SHIP enzyme assay (Assay 1), phosphate release by Malachite Green; format: biochemical; conditions: 10 ng enzyme/well, 100 μM inositol-1,3,4,5-tetrakisphosphate; further: key: a ‘+’ indicates a positive result for desired activity; a ‘−’ indicates a negative result for desired activity
Method: as §1

J774.1a macrophage cells [2] = assay: Macrophage TNF-α production (Assay 2); format: cell-based; conditions: 10 μg/mL test compound, 100 ng/mL LPS, supernatants after 2 hr and 5 hr; further: key: a ‘+’ indicates a positive result for desired activity; a ‘−’ indicates a negative result for desired activity
Method: as §1

MM cell lines = assay: In vitro Multiple Myeloma (MM) assay (Assay 7); format: cell-based; conditions: viable cell number by trypan blue; [3H]-thymidine; further: key: a ‘+’ indicates a positive result for desired activity; a ‘−’ indicates a negative result for desired activity
Method: as §1

plasma TNFα = assay: Mouse endotoxemia model (Assay 6), plasma TNFα by ELISA; format: in vivo, mice; conditions: oral, 30 min prior to IP 2 mg/kg LPS, plasma TNFα 2 hrs later
Method: as §1, with “6-8 week old C57B16 mice (VCHRI Mammalian Model of Human Disease Core Facility, Vancouver, BC) were orally administered the test compound 30 min prior to an IP injection of 2 mg/kg of LPS (E. Coli serotype 0111:B4, Sigma, Oakville, Ont). Blood was drawn 2 hrs later for determination of plasma TNFα by ELISA. Assay 7) In vitro Mulitple Myeloma (MM) assay.” left out, “exclusion.” for “exclusion. The lines RPMI 8226 and U266 were plated at a density of 1×10^6 cells/mL in 250 μL of medium with various concentrations of the test compound. At day 4, the medium of each culture was replaced by fresh medium containing the same concentration of test compound.”

Mast cells = assay: Stimulation of mast cells by FcεRI crosslinking (Assay 4); format: cell-based; conditions: test compound 30 min prior to DNP-HSA
Method: as §1, with “6-8 week old CD1 mice (University of British Columbia Animal Facility, Vancouver, BC) were sensitized to the hapten DNP by cutaneous application of 25 μL of 0.5% dinitrofluorobenzene (DNFB) (Sigma, Oakville, Ont) in acetone to the shaved abdomen of mice for two consecutive days. 24 hrs later, test substances (dissolved in 10 μL of 1:2 DMSO:MeOH) were painted on the right ear while the left ear received vehicle control. 30 min after drug application, DNFB was applied to both ears to induce mast cell degranulation. A 6 mm punch was taken from the ear and immediately frozen on dry ice for subsequent determination of neutrophil myeloperoxidase (MPO) activity. Assay 6) Mouse endotoxemia model. 6-8 week old C57B16 mice (VCHRI Mammalian Model of Human Disease Core Facility, Vancouver, BC) were orally administered the test compound 30 min prior to an IP injection of 2 mg/kg of LPS (E. Coli serotype 0111:B4, Sigma, Oakville, Ont). Blood was drawn 2 hrs later for determination of plasma TNFα by ELISA. Assay 7) In vitro Mulitple Myeloma (MM) assay.” left out, “exclusion.” for “exclusion. The lines RPMI 8226 and U266 were plated at a density of 1×10^6 cells/mL in 250 μL of medium with various concentrations of the test compound. At day 4, the medium of each culture was replaced by fresh medium containing the same concentration of test compound.”

| Structure (SMILES) | Assay 3: Macrophage NO assay, desired activity (J774.1a macrophage cells [1]) | Assay 1: SHIP enzyme assay, desired activity (SHIP enzyme) | Assay 2: Macrophage TNF-α production, desired activity (J774.1a macrophage cells [2]) | Assay 7: In vitro Multiple Myeloma (MM) assay, desired activity (MM cell lines) | Assay 6: Mouse endotoxemia model, desired activity (plasma TNFα) | Assay 4: Stimulation of mast cells by FcεRI crosslinking, desired activity (Mast cells) |
| --- | --- | --- | --- | --- | --- | --- |
| COC(=O)c1cc(O)c(O)c2c1[C@]1(C)CCC3C(C)(C)CCC[C@]3(C)[C@H]1C2 (stereo partly drawn) | + | + |  |  |  |  |
| CC1(C)CCC[C@@]2(C)C1CC[C@@]1(C)c3c(C(=O)O)cc(O)c(O)c3C[C@@H]12 (stereo partly drawn) | + | + | + |  |  |  |
| COC(=O)c1cc(O)c(O)c2c1[C@]1(C)CCC3C(C)(C)CCC[C@]3(C)[C@@H]1C2 (stereo partly drawn) | + | + |  |  |  |  |
| COC(=O)c1cc(O)c(O)c2c1[C@@]1(C)CCC3C(C)(C)CCC[C@]3(C)[C@H]1C2 (stereo partly drawn) | + | + |  |  |  |  |
| Cc1cc(O)c(O)c2c1[C@@]1(C)CCC3C(C)(C)CCC[C@]3(C)[C@H]1C2 (stereo partly drawn) |  | + |  |  |  |  |
| CCc1cc(O)c(O)c2c1[C@]1(C)CCC3C(C)(C)CCC[C@]3(C)[C@H]1C2 (stereo partly drawn) [Compound 18A] | + | + | + |  |  |  |
| Cc1cc2c(cc1O)C[C@@H]1[C@@]3(C)CCCC(C)(C)[C@@H]3CC[C@@]21C [Compound 101] | + |  | + | + |  |  |
| CC(=O)Oc1cc(C)c2c(c1)C[C@H]1[C@@]2(C)CCC2C(C)(C)CCC[C@@]21C (stereo partly drawn) [Compound 102] | + |  | + |  |  |  |
| Cc1cc(OC(=O)C(N)CCCNC(=N)N)cc2c1[C@]1(C)CCC3C(C)(C)CCC[C@]3(C)[C@H]1C2 (stereo partly drawn) [Compound 105] | + |  | + |  |  |  |
| Cc1cc(OP(=O)(O)O)cc2c1[C@]1(C)CCC3C(C)(C)CCC[C@]3(C)[C@H]1C2 (stereo partly drawn) [Compound 109] | + |  | − | + |  |  |
| Cc1cc(OC(=O)C(CC(=O)O)NC(=O)CCC(=O)O)cc2c1[C@]1(C)CCC3C(C)(C)CCC[C@]3(C)[C@H]1C2 (stereo partly drawn) [Compound 114] | + |  | + |  | + |  |
| CC1(C)CCC[C@]2(C)[C@H]3Cc4cc(O)cc(O)c4[C@]3(C)CC[C@@H]12 [Compound 115] |  |  |  | + |  |  |
| COc1cc(O)cc2c1[C@]1(C)CC[C@H]3C(C)(C)CCC[C@]3(C)[C@H]1C2 [Compound 117] | + |  | + | + |  |  |
| COc1ccc2c(c1O)C[C@@H]1[C@@]3(C)CCCC(C)(C)[C@@H]3CC[C@@]21C [Compound 118] | + |  | − | + |  |  |
| CC1(C)CCC[C@]2(C)[C@H]3Cc4cc(O)ccc4[C@]3(C)CC[C@@H]12 [Compound 121] | + |  | + | + |  |  |
| Cc1cc(O)c2c(c1)C[C@@H]1[C@@]3(C)CCCC(C)(C)[C@@H]3CC[C@@]21C [Compound 122] | + |  | − | + |  |  |
| Cc1cc(OC(=O)C(N)Cc2cnc[nH]2)cc2c1[C@]1(C)CCC3C(C)(C)CCC[C@]3(C)[C@H]1C2 (stereo partly drawn) [Compound 123] | + |  | + |  |  |  |
| Cc1cc(O)cc2c1[C@]1(C)CCC3C(C)(C)CCC[C@]3(C)[C@@H]1C2 (stereo partly drawn) [Compound 124] | + |  | + | + |  | + |
| Cc1cc(O)cc2c1[C@@]1(C)CCC3C(C)(C)CCC[C@]3(C)[C@H]1C2 (stereo partly drawn) [Compound 125] | + |  | + | + |  | + |
| COc1cc(C)c2c(c1O)C[C@@H]1[C@@]3(C)CCCC(C)(C)[C@@H]3CC[C@@]21C [Compound 129] | + |  | − |  |  |  |
